Source: patent US11352338B2, “Substituted isoindolinones” (BioTheryX, Inc., priority 2018, dated 2022)

Tests used:
[1] = target: T1, PDE6D (Homo sapiens, UniProt O43924+Q96SW2); assay: Western blot, degradation of cellular PDE6D in MV-4-11 cells; type: cell-based; conditions: for Dmax at 1 µM: MV4-11, tested at 1 μM, MV-4-11 cells, 6-8 hours, read-out: % Degradation compared to DMSO, PDE6D
T1 construct: endogenous in cells; host or cells: MV-4-11
Description: (§1) MV-4-11 cells were grown in RPMI 1640 media supplemented with 10% fetal bovine serum, streptomycin and penicillin.
(§2) Cells were cultured at approximately 10^6 cells per mL and incubated in DMSO or the indicated compounds for 6-8 hours. Whole cell extracts were prepared using RIPA lysis buffer according to manufacturer's protocol (Pierce). Briefly, 4×10^6 cells were washed once in PBS, the cell pellets were resuspended in RIPA lysis buffer and allowed to incubate for 15 minutes on ice. Cells debris was removed by centrifugation and the cleared whole cell lysates were transferred to new tubes for further analysis.
(§3) For Western blot analysis, whole cell protein extracts were separated on 4-12% SDS-polyacrylamide gels, transferred to nitrocellulose and probed with the indicated primary antibodies. Membranes were subsequently washed and probed with the appropriate IRDye secondary antibodies (LI-COR). The signal was detected using the Odyssey Imaging System (LI-COR).
(§4) The following antibodies were used in these studies: Anti-PDE6D antibody: Santa Cruz Biotechnology, sc-166854 (Dallas, Tex.); Anti-Ikaros: Abcam, ab191394 (Cambridge, Mass.); anti-CK1α antibody: Abcam, ab108296 (Cambridge, Mass.); β-Actin (8H10D10) mouse monoclonal antibody: Cell Signaling Technology, #3700 (Danvers, Mass.); IRDye 680RD Goat anti-rabbit antibody: LI-COR, 926-68071 (Lincoln, Nebr.); and IRDye 800CW Goat anti-mouse antibody: LI-COR, 926-32210 (Lincoln, Nebr.).
(§5) The % degradation values are reported as “A”, “B”, “C”, or “D.” “A” represents a % degradation value of less than 25% (value<25%); “B” represents a % degradation value of equal to or more than 25% and less than 50% (25%≤value<50%); “C” represents a % degradation value of equal to or more than 50% and less than 75% (50%≤value<75%); and “D” represents a % degradation value of equal to or more than 75% (value≥75%). […] was used as control.

[2] = target: T2, CK1α (Homo sapiens, UniProt P48729+Q96SW2); assay: Western blot, degradation of cellular CK1α in MV-4-11 cells; type: cell-based; conditions: MV4-11, tested at 1 μM, 6-8 hours, read-out: % Degradation compared to DMSO, CK1α
T2 construct: endogenous in cells; host or cells: MV-4-11
Description: as §1, §2, §3, §4, §5

[3] = target: T3, Ikaros (Homo sapiens, UniProt Q13422+Q96SW2); assay: Western blot, degradation of cellular Ikaros in MV-4-11 cells; type: cell-based; conditions: MV4-11, tested at 1 μM, 6-8 hours, read-out: % Degradation compared to DMSO, Ikaros
T3 construct: endogenous in cells; host or cells: MV-4-11
Description: as §1, §2, §3, §4, §5

[4] = test system: IL-1β; assay: IL-1β inhibition, LPS-induced PBMCs or CD14+ monocytes, Meso Scale assay; type: cell-based; conditions: LPS 100 ng/mL 18-24 h, read-out: % Inhibition compared to DMSO, IL-1β; for inhibition at 1 µM: tested at 1 μM; for inhibition at 10 µM: tested at 10 μM
Description: (§6) Either frozen primary blood mononuclear cells (PBMCs) or frozen CD14+ mobilized peripheral blood monocytes were purchased from AllCells (PB003F, Normal Peripheral Blood MNC (Alameda, Calif.)). Cells were quick thawed, washed 1-time with RPMI-1640 (10% FBS/1% Pen-Strep) and plated in 96 well plates at 200,000 cells per well. Cells were pretreated with DMSO only or with the indicated compound for 1 h and then induced with 100 ng/mL lipopolysaccharide (LPS) for 18-24 h. The supernatant was analyzed for IL-1β, IL-6, and TNFα, using Meso Scale assay according to manufacturer's protocol. The negative control wells were treated with DMSO.
(§7) IL-1β, IL-6 and TNFα activities were tested at two different concentrations (1 μM and 10 μM) and the results are shown in Tables 2 and 3 respectively.

[5] = test system: IL-6; assay: IL-6 inhibition, LPS-induced PBMCs or CD14+ monocytes, Meso Scale assay; type: cell-based; conditions: LPS 100 ng/mL 18-24 h, read-out: % Inhibition compared to DMSO, IL-6; for inhibition at 1 µM: tested at 1 μM; for inhibition at 10 µM: tested at 10 μM
Description: as §6, §7

[6] = test system: TNFα; assay: TNFα inhibition, LPS-induced PBMCs or CD14+ monocytes, Meso Scale assay; type: cell-based; conditions: LPS 100 ng/mL 18-24 h, read-out: % Inhibition compared to DMSO, TNFα; for inhibition at 1 µM: tested at 1 μM; for inhibition at 10 µM: tested at 10 μM
Description: as §6, §7

[7] = test system: IL-2; assay: IL-2 inhibition assay, anti-CD3 (OKT3) stimulated PBMCs, Mesoscale IL-2 analysis; type: cell-based, human; conditions: for fold induction at 1 µM / fold induction at 10 µM: Homo sapiens, PBMC, PBMCs on anti-CD3, 24 h, fold difference from DMSO control, read-out: IL-2, % Induction compared to DMSO
Description: For the IL-2 analysis, 96 well plates were precoated with 1 μg/mL anti-human CD3 antibody (OKT3, eBioscience Inc., San Diego, Calif.). After washing with PBS, the indicated compound was added (50 μL/well) followed by PBMCs diluted at 3-4 million cells/mL (150 μL/well). Plates were incubated for 24 h and the supernatants collected for Mesoscale IL-2 analysis. IL-2 activity is measured as fold difference from the DMSO control. […]
In Table 4, the fold-change values are reported as “A”, “B”, “C”, or “D”. “A” represents a fold-change value of equal to or less than 0.5 (value≤0.5); “B” represents a fold-change value of more than 0.5 and equal to or less than 1 (0.5<value≤1); “C” represents a fold-change value of more than 1 and less than 1.5 (1<value<1.5); and “D” represents a fold-change value of equal to or more than 1.5 (value≥1.5).

T3 sequence (Q13422 whole entry): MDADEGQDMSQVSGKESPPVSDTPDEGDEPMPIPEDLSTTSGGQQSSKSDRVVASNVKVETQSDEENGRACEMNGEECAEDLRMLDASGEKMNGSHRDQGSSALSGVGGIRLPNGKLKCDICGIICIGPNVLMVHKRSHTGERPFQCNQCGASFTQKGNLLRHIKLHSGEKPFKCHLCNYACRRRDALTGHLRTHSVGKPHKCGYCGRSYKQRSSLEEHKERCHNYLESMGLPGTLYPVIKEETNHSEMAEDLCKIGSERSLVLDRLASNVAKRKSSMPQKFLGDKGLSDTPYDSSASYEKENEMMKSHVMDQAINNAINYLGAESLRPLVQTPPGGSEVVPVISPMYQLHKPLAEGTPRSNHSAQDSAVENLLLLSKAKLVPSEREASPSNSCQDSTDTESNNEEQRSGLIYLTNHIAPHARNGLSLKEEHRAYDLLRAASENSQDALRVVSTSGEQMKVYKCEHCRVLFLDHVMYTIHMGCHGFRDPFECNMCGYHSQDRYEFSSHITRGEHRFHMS
T3 sequence (Q96SW2 whole entry): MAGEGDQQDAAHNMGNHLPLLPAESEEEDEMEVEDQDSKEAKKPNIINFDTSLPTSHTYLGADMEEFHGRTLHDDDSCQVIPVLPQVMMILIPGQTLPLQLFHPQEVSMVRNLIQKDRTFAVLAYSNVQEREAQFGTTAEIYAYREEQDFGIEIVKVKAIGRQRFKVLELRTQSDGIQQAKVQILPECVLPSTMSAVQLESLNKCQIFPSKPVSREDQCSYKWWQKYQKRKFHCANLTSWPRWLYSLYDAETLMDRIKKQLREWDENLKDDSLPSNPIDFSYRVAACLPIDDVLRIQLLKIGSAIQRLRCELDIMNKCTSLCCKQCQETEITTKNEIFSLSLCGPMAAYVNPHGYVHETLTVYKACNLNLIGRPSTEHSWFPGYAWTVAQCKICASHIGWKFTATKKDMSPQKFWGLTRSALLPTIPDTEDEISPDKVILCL
T3 sequence (Q16531 whole entry partner): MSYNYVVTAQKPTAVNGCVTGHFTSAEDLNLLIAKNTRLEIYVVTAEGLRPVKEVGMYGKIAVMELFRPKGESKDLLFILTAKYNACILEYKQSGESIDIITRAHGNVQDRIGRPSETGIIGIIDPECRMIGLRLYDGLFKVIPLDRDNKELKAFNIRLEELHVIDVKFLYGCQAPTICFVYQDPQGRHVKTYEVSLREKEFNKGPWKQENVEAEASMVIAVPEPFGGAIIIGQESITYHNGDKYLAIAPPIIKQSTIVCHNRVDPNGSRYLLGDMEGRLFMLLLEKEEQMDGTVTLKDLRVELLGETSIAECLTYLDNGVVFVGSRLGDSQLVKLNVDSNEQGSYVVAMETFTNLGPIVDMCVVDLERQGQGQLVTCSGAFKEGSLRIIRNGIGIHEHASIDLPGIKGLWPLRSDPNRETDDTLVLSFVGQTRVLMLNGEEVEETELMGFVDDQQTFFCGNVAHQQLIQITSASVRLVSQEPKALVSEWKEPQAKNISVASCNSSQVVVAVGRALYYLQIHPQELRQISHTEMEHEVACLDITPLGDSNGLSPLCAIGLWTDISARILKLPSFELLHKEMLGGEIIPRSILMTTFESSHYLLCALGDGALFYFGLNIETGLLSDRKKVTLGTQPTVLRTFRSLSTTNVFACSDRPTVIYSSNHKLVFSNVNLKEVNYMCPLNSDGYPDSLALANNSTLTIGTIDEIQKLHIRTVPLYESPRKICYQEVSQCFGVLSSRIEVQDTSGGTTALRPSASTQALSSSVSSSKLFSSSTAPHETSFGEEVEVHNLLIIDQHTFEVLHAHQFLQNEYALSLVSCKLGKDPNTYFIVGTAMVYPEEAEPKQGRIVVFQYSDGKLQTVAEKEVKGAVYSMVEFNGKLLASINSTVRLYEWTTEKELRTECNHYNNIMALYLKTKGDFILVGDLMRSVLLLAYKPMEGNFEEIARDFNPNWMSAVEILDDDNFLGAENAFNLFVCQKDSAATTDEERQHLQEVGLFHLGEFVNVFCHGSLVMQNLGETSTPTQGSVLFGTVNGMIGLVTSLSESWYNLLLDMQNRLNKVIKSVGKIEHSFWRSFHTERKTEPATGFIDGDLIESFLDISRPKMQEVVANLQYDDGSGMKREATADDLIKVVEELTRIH
T2 sequence (P48729 whole entry): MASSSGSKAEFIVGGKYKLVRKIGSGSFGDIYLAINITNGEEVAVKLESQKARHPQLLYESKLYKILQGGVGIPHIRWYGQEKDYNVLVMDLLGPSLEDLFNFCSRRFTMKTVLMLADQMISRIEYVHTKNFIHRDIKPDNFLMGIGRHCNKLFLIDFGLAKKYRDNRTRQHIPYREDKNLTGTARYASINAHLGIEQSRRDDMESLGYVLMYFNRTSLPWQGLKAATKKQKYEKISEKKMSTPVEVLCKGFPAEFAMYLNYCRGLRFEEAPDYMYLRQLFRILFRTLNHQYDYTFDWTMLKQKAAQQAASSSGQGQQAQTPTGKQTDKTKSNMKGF
T2 sequence (Q96SW2 whole entry): as the sequence (Q96SW2 whole entry) above
T2 sequence (Q16531 whole entry partner): as the sequence (Q16531 whole entry partner) above
T1 sequence (O43924 whole entry): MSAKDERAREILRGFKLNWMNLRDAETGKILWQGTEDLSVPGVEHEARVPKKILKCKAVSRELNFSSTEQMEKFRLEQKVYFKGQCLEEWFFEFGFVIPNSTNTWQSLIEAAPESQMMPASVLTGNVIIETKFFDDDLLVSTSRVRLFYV
T1 sequence (Q96SW2 whole entry): as the sequence (Q96SW2 whole entry) above
T1 sequence (Q16531 whole entry partner): as the sequence (Q16531 whole entry partner) above

SMILES	Dmax at 1 µM [1]	Dmax at 1 µM [2]	Dmax at 1 µM [3]	inhibition at 1 µM [4]	inhibition at 10 µM [4]	inhibition at 1 µM [5]	inhibition at 10 µM [5]	inhibition at 1 µM [6]	inhibition at 10 µM [6]	fold induction at 1 µM [7]	fold induction at 10 µM ([7]; 10 μM)	% Degradation of PDE6D ([1]; 1 μM, comparison with comparative compound A)	effect on IL-2 (in words) ([7]; 10 μM)	IL-2, % Induction compared to DMSO ([7]; 10 μM, comparison with comparative compound B)
O=C1CCC(N2Cc3c(cc(F)cc3C3CCC(F)(F)CC3)C2=O)C(=O)N1 (centres unmarked) [Compound 11]	≥ 75%	25 to 50%	≥ 75%	< 10%	< 10%	< 10%	< 10%	< 10%	< 10%	0.5 to 1	0.5 to 1			
O=C1CCC(N2C(=O)c3cc(F)cc(C4CCCC4)c3C2=O)C(=O)N1 (centres unmarked) [Compound 12]	≥ 75%	< 25%	< 25%	< 10%	< 10%	< 10%	< 10%	10 to 25%	25 to 50%	0.5 to 1	0.5 to 1			
O=C1CCC(N2Cc3c(cccc3C3CC3)C2=O)C(=O)N1 (centres unmarked) [Compound 13]	50 to 75%	50 to 75%	50 to 75%	25 to 50%	25 to 50%	< 10%	< 10%	> 50%	> 50%	≥ 1.5	≥ 1.5			
COc1cc2c(c(C3CCCC3)c1)CN(C1CCC(=O)NC1=O)C2=O (centres unmarked) [Compound 14]	25 to 50%	25 to 50%	50 to 75%	< 10%	10 to 25%	< 10%	< 10%	10 to 25%	25 to 50%	0.5 to 1	0.5 to 1			
O=C1CCC(N2Cc3c(cc(F)cc3C3CCCCCC3)C2=O)C(=O)N1 (centres unmarked) [Compound 15]	≥ 75%	50 to 75%	25 to 50%	< 10%	< 10%	< 10%	< 10%	< 10%	< 10%	0.5 to 1	≤ 0.5			
O=C1CCC(N2Cc3c(cc(F)c(F)c3C3CCCC3)C2=O)C(=O)N1 (centres unmarked) [Compound 16]	≥ 75%	50 to 75%	< 25%	< 10%	< 10%	< 10%	< 10%	< 10%	10 to 25%	0.5 to 1	0.5 to 1			
CCC1(N2Cc3c(cc(F)cc3C3CCCC3)C2=O)CCC(=O)NC1=O (centres unmarked) [Compound 18, 3-(4-Cyclopentyl-6-fluoro-1-oxoisoindolin-2-yl)-3-ethylpiperidine-2,6-dione]	25 to 50%	< 25%	< 25%	< 10%	10 to 25%	< 10%	< 10%	< 10%	25 to 50%	1 to 1.5	0.5 to 1			
O=C1CC(N2Cc3c(cc(F)cc3C3CCCC3)C2=O)C(=O)N1 (centres unmarked) [Compound 19, 3-(4-Cyclopentyl-6-fluoro-1-oxoisoindolin-2-yl)pyrrolidine-2,5-dione]	≥ 75%	< 25%	< 25%	< 10%	< 10%	< 10%	< 10%	< 10%	< 10%	0.5 to 1	0.5 to 1			
O=C1CCC(N2Cc3c(cc(F)cc3C3CCC3)C2=O)C(=O)N1 (centres unmarked) [Compound 20]	≥ 75%	50 to 75%	25 to 50%	< 10%	< 10%	< 10%	< 10%	10 to 25%	25 to 50%	≤ 0.5	≤ 0.5			
Cc1c(F)cc2c(c1C1CCCC1)CN(C1CCC(=O)NC1=O)C2=O (centres unmarked) [Compound 21, 3-(4-Cyclopentyl-6-fluoro-5-methyl-1-oxoisoindolin-2-yl) piperidine-2,6-dione]	≥ 75%	25 to 50%	25 to 50%	< 10%	< 10%	< 10%	< 10%	< 10%	25 to 50%	≤ 0.5	≤ 0.5			
C[C@@H](c1cc(F)cc2c1CN(C1CCC(=O)NC1=O)C2=O)C(F)(F)F (some centres unmarked) [Compound 22]	≥ 75%	≥ 75%	< 25%	< 10%	10 to 25%	< 10%	10 to 25%	< 10%	25 to 50%	≤ 0.5	≤ 0.5	D (a % degradation value of equal to or more than 75% (value≥75%))	strong inhibition of IL-2 (downregulation)	A (a fold-change value of equal to or less than 0.5 (value≤0.5))
C[C@H](c1cc(F)cc2c1CN(C1CCC(=O)NC1=O)C2=O)C(F)(F)F (some centres unmarked) [Compound 23]	25 to 50%	50 to 75%	< 25%	< 10%	< 10%	< 10%	< 10%	< 10%	25 to 50%	0.5 to 1	0.5 to 1			
O=C1CCC(N2Cc3c(ccc(F)c3C3CCCC3)C2=O)C(=O)N1 (centres unmarked) [Compound 24]	25 to 50%	< 25%	< 25%	< 10%	< 10%	< 10%	< 10%	10 to 25%	< 10%	1 to 1.5	1 to 1.5			
